Measurements published in US20200247812A1 (Integral Biosciences Private Limited, priority 2018, published 2020).

Molecular target: T1, ALK 5 (Homo sapiens, UniProt P36897)
T1 sequence (P36897 34-503): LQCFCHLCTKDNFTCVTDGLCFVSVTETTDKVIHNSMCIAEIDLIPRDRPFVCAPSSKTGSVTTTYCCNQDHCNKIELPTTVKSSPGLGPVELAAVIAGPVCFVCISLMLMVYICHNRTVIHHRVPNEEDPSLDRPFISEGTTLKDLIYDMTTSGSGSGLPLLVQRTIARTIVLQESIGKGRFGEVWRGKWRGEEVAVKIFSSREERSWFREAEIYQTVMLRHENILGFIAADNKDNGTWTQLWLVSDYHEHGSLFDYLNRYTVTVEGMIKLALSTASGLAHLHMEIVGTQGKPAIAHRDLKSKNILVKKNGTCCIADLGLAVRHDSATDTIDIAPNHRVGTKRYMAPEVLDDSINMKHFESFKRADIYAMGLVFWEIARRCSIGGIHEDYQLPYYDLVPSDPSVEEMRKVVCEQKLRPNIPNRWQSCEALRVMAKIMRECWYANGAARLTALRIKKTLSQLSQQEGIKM
Assay: In vitro kinase assay (ALK5 IC50, LanthaScreen Terbium labeled TR-FRET)
Type: biochemical
Conditions: TGF-β kinase 6 nM, ATP 10 μM, read-out: Enzyme Activity ALK 5 IC50
Experimental: Compounds of the invention were screened in an in vitro kinase assay against ALK 5, a members of the TGF-β family of Ser/Thr kinases. Standard kinase testing conditions and techniques were employed. IC50 values of compounds against TGF-ß kinase was determined by LanthaScreen™ Terbium Labeled TR-FRET assay. Kinase assays were performed in 1X kinase buffer (# PV6135, Invitrogen, Life Technologies Grand Island, N.Y.) where total reaction volume was 10 μL in low-volume 384-well plates (#4511, Corning). Serially diluted compounds (3-fold) were incubated with TGF-β kinase (6 nM) for 10 min, following which a mixture of ATP (10 μM) (# A1852, Sigma, St-Louis, Mo.) and fluorescent-PolyGT substrate (200 nM); Cat # PV3610, Invitrogen, Life Technologies Grand Island, N.Y.) was added and incubated in dark at room temperature for 1 h. After 1 h, 10 μL stop solution containing Terbium labeled antibody (4 nM; Cat # PV3529, Invitrogen, Life Technologies Grand Island, N.Y.) and EDTA (# E5134, Sigma, St-Louis, Mo.; 20 mM) in TR-FRET dilution buffer (Cat # PV3574, Invitrogen, Life Technologies Grand Island, N.Y.) was added. Readings were taken in a Synergy Neo Plate reader (BioTek, Winooski) at single excitation of 340 nm and Dual emission at 495 nm and 520 nm respectively.
The % activity of test samples was calculated as (Sample-Min)×100/(Max −Min). [Max: DMSO control, complete reaction with enzyme with DMSO and Min: No enzyme with DMSO]. Percent inhibition (100-% activity) was fitted to the “four-parameter logistic model” in XLfit for determination of IC50 values.

Row | IC50 [µM] | Structure (SMILES)
1 | 2 to 5 | Cc1cc(-c2cc(Nc3ccnc4ccncc34)c(C(C)C)[nH]c2=O)ccc1F [Compound 1.89, 5-((1,6-naphthyridin-4-yl)amino)-3-(4-fluoro-3-methylphenyl)-6-isopropylpyridin-2(1H)-one]
2 | ≤ 0.5 | COc1[nH]c(=O)c(-c2cc(Cl)ccc2F)cc1Nc1ccnc2[nH]ccc12 [Compound 1.76, 5-((1H-pyrrolo[2,3-b]pyridin-4-yl)amino)-3-(5-chloro-2-fluorophenyl)-6-methoxypyridin-2(1H)-one]
3 | > 5 | CC(C)c1[nH]c(=O)c(-c2cc(Cl)ccc2F)cc1Nc1ccnc(NC(=O)C(C)(C)C)c1 [Compound 1.49, N-(4-((5-(5-chloro-2-fluorophenyl)-2-isopropyl-6-oxo-1,6-dihydropyridin-3-yl)amino)pyridin-2-yl)pivalamide]
4 | > 5 | CC(C)c1[nH]c(=O)c(-c2cc(Cl)ccc2F)cc1Nc1ccnc(C(C)(C)C#N)c1 [Compound 1.60, 2-(4-((5-(5-chloro-2-fluorophenyl)-2-isopropyl-6-oxo-1,6-dihydropyridin-3-yl)amino)pyridin-2-yl)-2-methylpropanenitrile]
5 | > 5 | CC(C)c1[nH]c(=O)c(-c2cc(Cl)ccc2F)cc1Nc1ccnc(NS(C)(=O)=O)c1 [Compound 1.63, N-(4-((5-(5-chloro-2-fluorophenyl)-2-isopropyl-6-oxo-1,6-dihydropyridin-3-yl)amino)pyridin-2-yl)methanesulfonamide]
6 | 2 to 5 | Cc1cnc(Nc2cc(Nc3cc(-c4cc(Cl)ccc4F)c(=O)[nH]c3C3CC3)ccn2)s1 [Compound 1.77, 3-(5-chloro-2-fluorophenyl)-6-cyclopropyl-5-((2-((5-methylthiazol-2-yl)amino)pyridin-4-yl)amino)pyridin-2(1H)-one]
7 | ≤ 0.5 | CC(C)c1[nH]c(=O)c(-c2cc(Cl)ccc2F)cc1Nc1ccnc(NC(=O)CN2CCCC2)c1 [Compound 1.47, N-(4-((5-(5-chloro-2-fluorophenyl)-2-isopropyl-6-oxo-1,6-dihydropyridin-3-yl)amino)pyridin-2-yl)-2-(pyrrolidin-1-yl)acetamide]
8 | > 5 | CC(C)c1[nH]c(=O)c(-c2cc(Cl)ccc2F)cc1Nc1ccnc2[nH]ccc(=O)c12 [Compound 1.59, 5-((5-(5-chloro-2-fluorophenyl)-2-isopropyl-6-oxo-1,6-dihydropyridin-3-yl)amino)-1,8-naphthyridin-4(1H)-one]
9 | ≤ 0.5 | NC(=O)c1cnccc1Nc1cc(-c2cc(Cl)ccc2F)c(=O)[nH]c1C1CC1 [Compound 1.74, 4-((5-(5-chloro-2-fluorophenyl)-2-cyclopropyl-6-oxo-1,6-dihydropyridin-3-yl)amino)nicotinamide]
10 | > 5 | CC(=O)Nc1cc(Nc2cc(-c3ccc(C(F)(F)F)nc3)c(=O)[nH]c2C(C)C)ccn1 [Compound 1.56, N-(4-((6-isopropyl-2-oxo-6′-(trifluoromethyl)-1,2-dihydro-[3,3′-bipyridin]-5-yl)amino)pyridin-2-yl)acetamide]
11 | ≤ 0.5 | CC(=O)Nc1cc(Nc2cc(-c3ccc(F)c(C)c3)c(=O)[nH]c2C(C)C)ccn1 [Compound 1.83, N-(4-((5-(4-fluoro-3-methylphenyl)-2-isopropyl-6-oxo-1,6-dihydropyridin-3-yl)amino)pyridin-2-yl)acetamide]
12 | ≤ 0.5 | CC(=O)Nc1cc(Nc2cc(-c3cccc(Cl)c3)c(=O)[nH]c2C(C)C)ccn1 [Compound 1.81, N-(4-((5-(3-chlorophenyl)-2-isopropyl-6-oxo-1,6-dihydropyridin-3-yl)amino)pyridin-2-yl)acetamide]
13 | > 5 | CC(C)c1[nH]c(=O)c(-c2cc(Cl)ccc2F)cc1Nc1ccnc(NC(=O)CN2CCOCC2)c1 [Compound 1.65, N-(4-((5-(5-chloro-2-fluorophenyl)-2-isopropyl-6-oxo-1,6-dihydropyridin-3-yl)amino)pyridin-2-yl)-2-morpholinoacetamide]
14 | 0.5 to 2 | COc1[nH]c(=O)c(-c2cc(Cl)ccc2F)cc1Nc1ccnc2ccncc12 [Compound 1.73, 5-((1,6-naphthyridin-4-yl)amino)-3-(5-chloro-2-fluorophenyl)-6-methoxypyridin-2(1H)-one]
15 | > 5 | CC(C)c1[nH]c(=O)c(-c2cc(Cl)ccc2F)cc1Nc1ccnc(NC(=O)C2CC2)c1 [Compound 1.45, N-(4-((5-(5-chloro-2-fluorophenyl)-2-isopropyl-6-oxo-1,6-dihydropyridin-3-yl)amino)pyridin-2-yl)cyclopropanecarboxamide]

Further lines, the compound ahead of its results:

Row | Structure (SMILES) | IC50 [µM]
16 | CN(C)c1[nH]c(=O)c(-c2cc(Cl)ccc2F)cc1Nc1ccncc1C#N [Compound 1.34, 4-((5-(5-chloro-2-fluorophenyl)-2-(dimethylamino)-6-oxo-1,6-dihydropyridin-3-yl)amino)nicotinonitrile] | > 5
17 | C[C@H](O)CNC(=O)c1cnccc1Nc1cc(-c2cc(Cl)ccc2F)c(=O)n2c1N(C)CC2 [Compound 1.19, (S)-4-((6-(5-chloro-2-fluorophenyl)-1-methyl-5-oxo-1,2,3,5-tetrahydroimidazo[1,2-a]pyridin-8-yl)amino)-N-(2-hydroxypropyl)nicotinamide] | 2 to 5
18 | CC(C)c1[nH]c(=O)c(-c2cc(Cl)ccc2F)cc1Nc1ccnc2ccncc12 [Compound 1.42, 5-((1,6-naphthyridin-4-yl)amino)-3-(5-chloro-2-fluorophenyl)-6-isopropylpyridin-2(1H)-one] | 2 to 5
19 | CN1CCn2c1c(Nc1ccnc3[nH]ccc13)cc(-c1cc(Cl)ccc1F)c2=O [Compound 1.18, 8-((1H-pyrrolo[2,3-b]pyridin-4-yl)amino)-6-(5-chloro-2-fluorophenyl)-1-methyl-2,3-dihydroimidazo[1,2-a]pyridin-5(1H)-one] | ≤ 0.5
20 | C[C@H](CO)NC(=O)c1cnccc1Nc1cc(-c2cc(Cl)ccc2F)c(=O)n2c1N(C)CCC2 [Compound 1.25, (R)-4-((7-(5-chloro-2-fluorophenyl)-1-methyl-6-oxo-1,3,4,6-tetrahydro-2H-pyrido[1,2-a]pyrimidin-9-yl)amino)-N-(1-hydroxypropan-2-yl)nicotinamide] | > 5
21 | CN(C)c1[nH]c(=O)c(-c2cc(Cl)ccc2F)cc1Nc1ccnc2ccccc12 [Compound 1.16, 3-(5-chloro-2-fluorophenyl)-6-(dimethylamino)-5-(quinolin-4-ylamino)pyridin-2(1H)-one] | > 5
22 | C[C@H](O)CNC(=O)c1cnccc1Nc1cc(-c2cc(Cl)ccc2F)c(=O)n(C)c1 [Compound 1.7, (S)-4-((5-(5-chloro-2-fluorophenyl)-1-methyl-6-oxo-1,6-dihydropyridin-3-yl)amino)-N-(2-hydroxypropyl)nicotinamide] | > 5
23 | C[C@H](O)CNC(=O)c1cnccc1Nc1cc(-c2cc(Cl)ccc2F)c(=O)n2c1N(C)CCC2 [Compound 1.20, (S)-4-((7-(5-chloro-2-fluorophenyl)-1-methyl-6-oxo-1,3,4,6-tetrahydro-2H-pyrido[1,2-a]pyrimidin-9-yl)amino)-N-(2-hydroxypropyl)nicotinamide] | > 5
24 | CN(C)c1[nH]c(=O)c(-c2cc(Cl)ccc2F)cc1Nc1ccncc1C(F)(F)F [Compound 1.15, 3-(5-chloro-2-fluorophenyl)-6-(dimethylamino)-5-((3-(trifluoromethyl)pyridin-4-yl)amino)pyridin-2(1H)-one] | > 5
25 | C[C@H](CO)NC(=O)c1cnccc1Nc1cc(-c2cc(Cl)ccc2F)c(=O)n2c1N(C)CC2 [Compound 1.23, (R)-4-((6-(5-chloro-2-fluorophenyl)-1-methyl-5-oxo-1,2,3,5-tetrahydroimidazo[1,2-a]pyridin-8-yl)amino)-N-(1-hydroxypropan-2-yl)nicotinamide] | > 5
26 | C[C@@H](CO)NC(=O)c1cnccc1Nc1cc(-c2cc(Cl)ccc2F)c(=O)n2c1N(C)CCC2 [Compound 1.21, (S)-4-((7-(5-chloro-2-fluorophenyl)-1-methyl-6-oxo-1,3,4,6-tetrahydro-2H-pyrido[1,2-a]pyrimidin-9-yl)amino)-N-(1-hydroxypropan-2-yl)nicotinamide] | 0.5 to 2
27 | Cc1cccc(-c2cc(Nc3ccncc3C(=O)NC[C@H](C)O)c(N(C)C)[nH]c2=O)n1 [Compound 1.27, (S)-4-((6′-(dimethylamino)-6-methyl-2′-oxo-1′,2′-dihydro-[2,3′-bipyridin]-5′-yl)amino)-N-(2-hydroxypropyl)nicotinamide] | > 5
